Counter-ions that a name gives are not always drawn. Each block holds one molecule with its values, some of them ahead of it.
Legend:
[1] = Human liver microsome stability test; type: in vitro ADME; conditions: pH 7.4; human liver microsomes 0.5 mg/mL, 1 µM compound, NADPH, 37 °C
Method: Preparation of compound working solutions: A high-concentration stock solution of the subject and control drug verapamil powder was prepared in DMSO and diluted to a working solution of 100 µM with DMSO before use, with a final concentration of 1 µM of the subject and verapamil.
Preparation of phosphate buffer salt (100 mM, pH 7.4): 7.098 g of disodium hydrogen phosphate was weighed and dissolved ultrasonically in 500 mL of purified water as solution A. 3.400 g of potassium dihydrogen phosphate was weighed and dissolved ultrasonically in 250 mL of purified water as solution B. Solution B was added to the inside of solution A to give a pH of 7.4.
Preparation of 10 mM NADPH: An appropriate amount of NADPH is now weighed before the experiment and a working solution of 10 mM concentration is prepared from phosphate solution.
Preparation of the incubation system: The incubation system was prepared according to the following table, and the incubation system was preheated in a water bath at 37 °C for 10 minutes before use.
Transfer 25 µL of NADPH or phosphate buffer salt to the above incubation system and add 2.5 µL of 100 µM subject or verapamil. For NADPH-added samples, double-parallel preparations were performed; for NADPH-negative samples, single-parallel preparations were performed.
30 µL of the suspension was taken at 0.5, 5, 15, 30, and 60 min, respectively. The reaction was terminated by adding 150 µL of acetonitrile containing the internal standard and vortexed for 10 min.
This was followed by centrifugation at 3220 g for 40 min for protein precipitation. 100 µL of supernatant was transferred to the injection plate and mixed with 100 µL of pure water for UPLC-MS/MS analysis.
All data calculations were performed by Microsoft Excel software. Peak areas were detected by extracted ion mapping. The in vitro half-life (t1/2) of the parent drug was assayed by fitting the natural logarithm of the percentage elimination of the parent drug linearly with time.
The in vitro half-life (t1/2) was calculated by slope: t1/2 = 0.693 / k
The in vitro clearance (in µL/min/mg) was calculated using the following formula: CLint =0.693/ t1/2 * (Incubation system volume (μL) / protein content (mg)) [formula]
Table 3 the experimental results of human liver microsome of the compounds provided in some examples of the present invention

GLP-1 receptor = molecular target: T1, GLP-1 receptor (Homo sapiens, UniProt P43220); test: cAMP detection assay of agonistic effect in HEK293 cells with high expression of hGLP-1R; type: cell-based; conditions: agonistic effect, cAMP, HEK293 cells with high expression of hGLP-1R; read-out: EC50
T1 construct: host or cells: HEK293
Method: The cells were constructed by Wuxi New Drug Development Co., Ltd. Shanghai.
The compound was prepared with DMSO to a working concentration of 100µM or 10µM. 10 points of 4-fold dilution (maximum concentration of 1000nM or 100nM after dilution) was done with Bravo V11.
The compound to be tested was diluted 4 times with Bravo to obtain 10 concentrations and the initial concentration was 100µM by Bravo V11. The initial concentration was 100µM.

[2] = Pharmacokinetic study in rats (intravenous or gavage, plasma LC-MS/MS); type: in vivo; conditions: SD rats; for F: po 5 mg/kg versus iv 1 mg/kg; for AUC(0-t) / Cmax / Tmax / half-life: rat, plasma
Method: SD rats: male, 6-8 weeks old, weighing 200-300 g, purchased from SPF ( Beijing ) Biotechnology Co.,Ltd..
At each PK sampling point, 200 µL of whole blood was collected into EDTA-K2 anticoagulant blood tubes and centrifuged at 4°C for 30 min to obtain plasma. Whole blood samples were placed on wet ice before centrifugation. All collected plasma samples were stored on dry ice or frozen until analyzed.
Approximately1 mg of the compound of the present application was weighed and dissolved in DMSO, vortexed and sonicated to obtain a 1 mg/mL standard stock solution. The standard stock solution was diluted with 50% aqueous acetonitrile to obtain standard working solutions with concentrations of 5, 10, 20, 50, 100, 500, 1000, 5000 and 10000 ng/mL. QC working solutions with concentrations of 10, 20, 500 and 8000 ng/mL were prepared using the same dilution method. These QC samples were prepared on the day of analysis in the same way as the standard curve samples.5 µL of standard working solution with concentrations of (5, 10, 20, 50, 100, 500, 1000, 5000 and 10000 ng/mL) was added to 50 µL of blank SD rat plasma to obtain a total volume of 55 µL with concentrations of 0.5-1000 ng/mL (0.5, 1, 2, 5, 10, 50, 100, 500, and 1000 ng/mL) of standard curve samples. QC samples with concentrations of (1 ng/ml (low-1) and 2 ng/ml (low-2), 50 ng/ml (medium), 800 ng/ml (high)) were configured separately.
55 µL of standard samples, 55 µL of QC samples or 55 µL of unknown samples (50 µL of plasma samples added to 5 µL of 50% aqueous acetonitrile) were added to 200 µL of acetonitrile containing an internal standard (dexamethasone) to precipitate proteins. […] The supernatant was taken and diluted 3-fold with water, and 5 µL of the supernatant dilution was injected into the LC-MS/MS system for quantitative analysis under the following assay conditions:
Column: HALO 90A Phenly-Hexyl, 2µm 2.1×30mm.
Pharmacokinetic parameters were calculated by the […] of Phoenix TM Winnonlin® 8.3 software.

T1 sequence (P43220 24-463): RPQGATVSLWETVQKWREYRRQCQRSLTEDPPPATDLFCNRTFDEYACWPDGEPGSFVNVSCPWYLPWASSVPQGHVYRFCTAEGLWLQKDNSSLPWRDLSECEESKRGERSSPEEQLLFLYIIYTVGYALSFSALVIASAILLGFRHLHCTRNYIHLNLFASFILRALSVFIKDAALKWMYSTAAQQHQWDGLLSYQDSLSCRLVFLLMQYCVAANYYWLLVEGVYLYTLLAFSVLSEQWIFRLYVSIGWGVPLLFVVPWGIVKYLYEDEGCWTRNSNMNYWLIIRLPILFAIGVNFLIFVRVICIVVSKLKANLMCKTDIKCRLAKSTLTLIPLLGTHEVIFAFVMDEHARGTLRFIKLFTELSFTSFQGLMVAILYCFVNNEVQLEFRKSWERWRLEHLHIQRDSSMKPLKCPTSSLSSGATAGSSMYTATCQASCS

- half-life at 1 µM [1]: 1.84 h
- EC50 (GLP-1 receptor): 0.26 nM
Compound: O=C(O)c1ccc2nc(CC3CC=C(c4ncc(F)c(OCc5ccc(Cl)c6ccoc56)n4)CC3)n(C[C@@H]3CCO3)c2c1 (stereo partly drawn) [Compound 3, 2-((4-(4-((4-chlorobenzofuran-7-yl)methoxy)-5-fluoropyrimidin-2-yl)cyclohex-3-en-1-yl)methyl)-1-(((S)-oxetan-2-yl)methyl)-1H-benzo[d]imidazole-6-carboxylic acid]

- half-life at 1 µM [1]: > 3.08 h
Compound: O=C(O)c1ccc2nc(CC3CC=C(c4ncc(F)c(OCc5ccc(Cl)c6cc(F)oc56)n4)CC3)n(C[C@@H]3CCO3)c2n1 (stereo partly drawn) [Compound 5, 2-((4-(4-((4-chloro-2-fluorobenzofuran-7-yl)methoxy)-5-fluoropyrimidin-2-yl)cyclohex-3-en-1-yl)methyl)-3-(((S)-oxetan-2-yl)methyl)-3H-imidazo[4,5-b]pyridine-5-carboxylic acid]

- half-life at 1 µM [1]: 1.86 h
Compound: O=C(O)c1ccc2nc(CC3CC=C(c4cccc(OCc5ccc(Cl)c6cc(F)oc56)n4)CC3)n(C[C@@H]3CCO3)c2n1 (stereo partly drawn) [Compound 6, 2-((4-(6-((4-chloro-2-fluorobenzofuran-7-yl)methoxy)pyridin-2-yl)cyclohex-3-en-1-yl)methyl)-3-(((S)-oxetan-2-yl)methyl)-3H-imidazo[4,5-b]pyridine-5-carboxylic acid]

- EC50 (GLP-1 receptor): 0.22 nM
Compound: O=C(O)c1ccc2nc(CC3CCC(c4cccc(OCc5ccc(Cl)c6cc(F)oc56)n4)CC3)n(C[C@@H]3CCO3)c2c1 (stereo partly drawn) [Compound 7, (5)-2-((4-(6-((4-chloro-2-fluorobenzofuran-7-yl)methoxy)pyridin-2-yl)cyclohexyl)methyl)-1-(oxetan-2-ylmethyl)-1H-benzo[d]imidazole-6-carboxylic acid]

- half-life at 1 µM [1]: 3 h
Compound: O=C(O)c1cc2c(nc(CC3CC=C(c4cccc(OCc5ccc(Cl)c6cc(F)oc56)n4)CC3)n2C[C@@H]2CCO2)s1 (stereo partly drawn) [Compound 8, 2-((4-(6-((4-chloro-2-fluorobenzofuran-7-yl)methoxy)pyridin-2-yl)cyclohex-3-en-1-yl)methyl)-1-(((S)-oxetan-2-yl)methyl)-1H-thieno[2,3-d]imidazole-5-carboxylic acid]

- F [2]: 38.8%
- AUC(0-t) ([2]; male, iv, 1 mg/kg): 1250 ng·h/mL
- Cmax ([2]; male, iv, 1 mg/kg): 1080 ng/mL
- Tmax ([2]; male, iv, 1 mg/kg): 0.083 h
- half-life ([2]; male, iv, 1 mg/kg): 2.57 h
- AUC(0-t) ([2]; male, po, 5 mg/kg): 2440 ng·h/mL
- Cmax ([2]; male, po, 5 mg/kg): 460 ng/mL
- Tmax ([2]; male, po, 5 mg/kg): 4 h
- half-life ([2]; male, po, 5 mg/kg): 5.29 h
Compound: O=C(O)c1ccc2nc(CC3CC=C(c4cccc(OCc5ccc(Cl)c6cc(Cl)oc56)n4)CC3)n(C[C@@H]3CCO3)c2c1 (stereo partly drawn) [Compound 25, 2-((4-(6-((2,4-dichlorobenzofuran-7-yl)methoxy)pyridin-2-yl)cyclohex-3-en-1-yl)methyl)-1-(((S)-oxetan-2-yl)methyl)-1H-benzo[d]imidazole-6-carboxylic acid]

- half-life at 1 µM [1]: > 3.08 h
- EC50 (GLP-1 receptor): 0.07 nM
Compound: N#CCC1(Cn2c(CC3CC=C(c4cccc(OCc5ccc(Cl)c6cc(F)oc56)n4)CC3)nc3ccc(C(=O)O)cc32)CC1 (stereo not drawn) [Compound 28, 2-((4-(6-((4-chloro-2-fluorobenzofuran-7-yl)methoxy)pyridin-2-yl)cyclohex-3-en-1-yl)methyl)-1-((1-(cyanomethyl)cyclopropyl)methyl)-1H-benzo[d]imidazole-6-carboxylic acid]

- EC50 (GLP-1 receptor): 0.22 nM
Compound: CCn1cncc1Cn1c(CC2CC=C(c3cccc(OCc4ccc(Cl)c5cc(F)oc45)n3)CC2)nc2ccc(C(=O)O)cc21 (stereo not drawn) [Compound 29, 2-((4-(6-((4-chloro-2-fluorobenzofuran-7-yl)methoxy)pyridin-2-yl)cyclohex-3-en-1-yl)methyl)-1-((1-ethyl-1H-imidazol-5-yl)methyl)-1H-benzo[d]imidazole-6-carboxylic acid hydrochloride]

- half-life at 1 µM [1]: 2.77 h
- EC50 (GLP-1 receptor): 0.19 nM
Compound: O=C(O)c1ccc2nc(CC3CC=C(c4ncc(F)c(OCc5ccc(Cl)c6cc(F)oc56)n4)CC3)n(C[C@@H]3CCO3)c2c1 (stereo partly drawn) [Compound 31]

- EC50 (GLP-1 receptor): 0.2 nM
Compound: O=C(O)c1ccc2nc(CC3CC=C(c4cccc(OCc5ccc(Cl)c6ccoc56)n4)CC3)n(C[C@@H]3CCO3)c2n1 (stereo partly drawn) [Compound 34, 2-((4-(6-((4-chlorobenzofuran-7-yl)methoxy)pyridin-2-yl)cyclohex-3-en-1-yl)methyl)-3-(((S)-oxetan-2-yl)methyl)-3H-imidazo[4,5-b]pyridine-5-carboxylic acid]

- EC50 (GLP-1 receptor): 0.22 nM
Compound: O=C(O)c1ccc2nc(C[C@H]3CC=C(c4cccc(OCc5ccc(Cl)c6cc(F)oc56)n4)CC3)n(C[C@@H]3CCO3)c2c1 [Compound 36B, 2-(((R)-4-(6-((4-chloro-2-fluorobenzofuran-7-yl)methoxy)pyridin-2-yl)cyclohex-3-en-1-yl)methyl)-1-(((S)-oxetan-2-yl)methyl)-1H-benzo[d]imidazole-6-carboxylic acid]

Compound: O=C(O)c1ccc2nc(C[C@H]3CC[C@H](c4cccc(OCc5ccc(Cl)c6cc(Cl)oc56)n4)CC3)n(C[C@@H]3CCO3)c2c1 [Compound 38B, 2-(((1r,4S)-4-(6-((2,4-dichlorobenzofuran-7-yl)methoxy)pyridin-2-yl)cyclohexyl)methyl)-1-(((S)-oxetan-2-yl)methyl)-1H-benzo[d]imidazole-6-carboxylic acid]
- F [2]: 21.1%
- AUC(0-t) ([2]; iv, 1 mg/kg): 3940 ng·h/mL
- Cmax ([2]; iv, 1 mg/kg): 5280 ng/mL
- Tmax ([2]; iv, 1 mg/kg): 0.083 h
- half-life ([2]; iv, 1 mg/kg): 1.45 h
- AUC(0-t) ([2]; po, 5 mg/kg): 4130 ng·h/mL
- Cmax ([2]; po, 5 mg/kg): 1400 ng/mL
- Tmax ([2]; po, 5 mg/kg): 1.17 h
- half-life ([2]; po, 5 mg/kg): 2.62 h

- EC50 (GLP-1 receptor): 0.15 nM
Compound: O=C(O)c1cc(F)c2nc(C[C@H]3CC[C@H](c4cccc(OCc5ccc(Cl)c6cc(F)oc56)n4)CC3)n(C[C@@H]3CCO3)c2c1 [Compound 39, 2-(((1r,4S)-4-(6-((4-chloro-2-fluorobenzofuran-7-yl)methoxy)pyridin-2-yl)cyclohexyl)methyl)-4-fluoro-1-(((S)-oxetan-2-yl)methyl)-1H-benzo[d]imidazole-6-carboxylic acid]

- EC50 (GLP-1 receptor): 0.2 nM
Compound: N#CCC1(Cn2c(C[C@H]3CC[C@H](c4cccc(OCc5ccc(Cl)c6cc(F)oc56)n4)CC3)nc3ccc(C(=O)O)cc32)CC1 [Compound 43, 2-(((1r,4r)-4-(6-((4-chloro-2-fluorobenzofuran-7-yl)methoxy)pyridin-2-yl)cyclohexyl)methyl)-1-((1-(cyanomethyl)cyclopropyl)methyl)-1H-benzo[d]imidazole-6-carboxylic acid]

— patent EP4491625A1, “BENZO BICYCLIC COMPOUND, AND PREPARATION METHOD AND APPLICATION THEREOF” (Guangzhou Unirise Pharmaceutical Co., Ltd., priority 2022, dated 2023)
